# Data published in US20020147232A1 (priority 2000, published 2002).
# What was measured:
# [1] = Stability of desglymidodrine (calibration curve of desglymidodrine); type: physicochemical
# blood pressure [2] = details: cited from earlier work
# [3] = Tsutsui, n = 5 healthy volunteers, label = administered drug, cited from earlier work
# pilomotor reaction = details: oral, seven healthy volunteers; cited from earlier work
# [4] = Stability of desglymidodrine in solution (comparison of peak areas); type: physicochemical; details: for 0 days (peak area), autoclave series: before autoclave
# Text: The tablets were subject to stability testning. […] The following initial results were obtained:
# Stability of desglymidodrinein solution
# Based on comparison of peak areas
# blood pressure [5] = details: oral single dose; cited from earlier work
# [6] = solution in Buffer pH 7.4, 0 days
smiles,measurement,setting,value
"COc1ccc(OC)c(C(O)CN)c1 (stereo not drawn) [desglymidodrine, alpha-(aminomethyl)-2,5-dimethoxy-benzenemethanol]","content of desglymidodrine, 14 days","[1]; Glass, 25° C./60% RH 1.2mioluxh",103
same,"content of desglymidodrine, 0 days","[1]; Glass, 25° C./60% RH",100
same,"content of desglymidodrine, 14 days","[1]; Glass, 25° C./60% RH",103
same,"content of desglymidodrine, 21 days","[1]; Glass, 25° C./60% RH",100
same,"content of desglymidodrine, 14 days","[1]; Glass, 40° C./75% RH",102
same,"content of desglymidodrine, 21 days","[1]; Glass, 40° C./75% RH",100
same,"content of desglymidodrine, 0 days","[1]; Open petri dish, 25° C./60% RH",100
same,"content of desglymidodrine, 14 days","[1]; Open petri dish, 25° C./60% RH",102
same,"content of desglymidodrine, 21 days","[1]; Open petri dish, 25° C./60% RH",100
same,"content of desglymidodrine, 14 days","[1]; Open petri dish, 40° C./75% RH",102
same,"content of desglymidodrine, 21 days","[1]; Open petri dish, 40° C./75% RH",97
same,duration of blood pressure effect,blood pressure [2]; intravenous injection of 5 mg,3 to 4 min
same,Tmax desglymidodrine,[3]; analyte desglymidodrine,1.2 ± 0.2 h
same,duration of effect (pilomotor reaction),pilomotor reaction,160 (135-185) min
same,time to occurrence of pilomotor reaction,pilomotor reaction,34 ± 25 min
same,"peak area, 0 days","[4]; solution in 0.1N HCl, 0 days",1548689
same,"0 days (peak area), autoclave series","[4]; solution in 0.1N HCl, 0 days",99
same,"peak area, 7 days","[4]; solution in 0.1N HCl, 7 days",1516212
same,Autoclave 120° C.,"[4]; solution in 0.1N HCl, after autoclave 120° C.",101
same,"peak area, 0 days",[4]; [6],1341613
same,"0 days (peak area), autoclave series",[4]; [6],102
same,"peak area, 7 days","[4]; solution in Buffer pH 7.4, 7 days",1289393
same,Autoclave 120° C.,"[4]; solution in Buffer pH 7.4, after autoclave 120° C.",102
same,"peak area, 0 days","[4]; solution in Water, 0 days",1582140
same,"0 days (peak area), autoclave series","[4]; solution in Water, 0 days",100
same,"peak area, 7 days","[4]; solution in Water, 7 days",1601999
same,Autoclave 120° C.,"[4]; solution in Water, after autoclave 120° C.",100
"COc1ccc(OC)c(C(O)CNC(=O)CN)c1 (stereo not drawn) [midodrine, 2-amino-N-[2-(2,5-dimethoxyphenyl)-2-hydroxyethyl]-acetamide, reference compound]",intravenous dose as potent as 5 mg desglymidodrine i.v. with respect to increase of blood pressure,blood pressure [2]; intravenous,20 to 25 mg
same,Tmax midodrine,[3]; analyte midodrine,1.4 ± 0.2 h
same,duration of effect (pilomotor reaction),pilomotor reaction,150 (30-240) min
same,time to occurrence of pilomotor reaction,pilomotor reaction,74 ± 29 min
same,persistence of pressor effect,blood pressure [5],3 to 6 h
same,time until pressor effect is manifest,blood pressure [5],20 to 90 min
